{"source": "patent US10766865B2", "about": "“PKM2 modulators and methods for their use” (TOLERO PHARMACEUTICALS, INC., priority 2012, dated 2020)", "assay_type_in_all_cases": "cell-based", "key": {"[1]": {"tested_on": "A549 cells", "assay": "Cell Proliferation Assay, A549", "details": "Homo sapiens; A549, BME media lacking nonessential amino acids, 72 hours, ATPlite; read-out: Percent viability (EC50), Average", "method": "(§1) Cells were seeded at 5000 cells per well (in 96-well plate) in BME media lacking nonessential amino acids+5% dialyzed serum. After 18 hours, DMSO or compound in 0.1% final concentration DMSO was added.\n(§2) Percent viability (EC50) of A549 and PC3 cells was tested against certain exemplary compounds according to the above general procedures."}, "[2]": {"tested_on": "PC3 cells", "assay": "Cell Proliferation Assay, PC3", "details": "Homo sapiens, PC-3; PC3, BME media lacking nonessential amino acids, 72 hours, ATPlite; read-out: Percent viability (EC50), Average", "method": "as §1, §2"}, "[3]": {"tested_on": "lung carcinoma cell lines", "assay": "Viability against a subset of lung carcinoma cell lines", "details": "certain of 6 cell lines, media lacking serine, FIG. 4C; read-out: IC50, inhibition of cell proliferation", "method": "(§3) Viability effect of Example 1 against a subset of lung carcinoma cell lines was determined as follows. Cells were seeded at 1500 cells per well in 384-well plates in BME media, and compound was added in 0.1% DMSO 18 hours later. Viability was determined by ATPlite assay after 72 hours. (See FIG. 4C)."}, "[4]": {"tested_on": "22RV1", "assay": "Cell line sensitivity (viability, ATPlite)", "details": "Homo sapiens; 22RV1, Prostate; BME media, 72 hours; read-out: Sensitivity to Example 1 (IC50)", "method": "as §3\n(§4) Example 1 was tested against an expanded panel of cell lines according to the above procedure."}, "[5]": {"tested_on": "AsPC1", "assay": "Cell line sensitivity (viability, ATPlite)", "details": "Homo sapiens; AsPC1, Pancreatic; BME media, 72 hours; read-out: Sensitivity to Example 1 (IC50)", "method": "as §3, §4"}, "[6]": {"tested_on": "Caki-1", "assay": "Cell line sensitivity (viability, ATPlite)", "details": "Homo sapiens; Caki-1, Kidney; BME media, 72 hours; read-out: Sensitivity to Example 1 (IC50)", "method": "as §3, §4"}, "[7]": {"tested_on": "Capan1", "assay": "Cell line sensitivity (viability, ATPlite)", "details": "Homo sapiens, CAPAN-1; Capan1, Pancreatic; BME media, 72 hours; read-out: Sensitivity to Example 1 (IC50)", "method": "as §3, §4"}, "[8]": {"tested_on": "Capan2", "assay": "Cell line sensitivity (viability, ATPlite)", "details": "Homo sapiens, Capan-2; Capan2, Pancreatic; BME media, 72 hours; read-out: Sensitivity to Example 1 (IC50)", "method": "as §3, §4"}, "[9]": {"tested_on": "Detroit562", "assay": "Cell line sensitivity (viability, ATPlite)", "details": "Homo sapiens, Detroit 562; Detroit562, Head/Neck; BME media, 72 hours; read-out: Sensitivity to Example 1 (IC50)", "method": "as §3, §4"}, "[10]": {"tested_on": "Du145", "assay": "Cell line sensitivity (viability, ATPlite)", "details": "Homo sapiens, DU-145; Du145, Prostate; BME media, 72 hours; read-out: Sensitivity to Example 1 (IC50)", "method": "as §3, §4"}, "[11]": {"tested_on": "FaDu", "assay": "Cell line sensitivity (viability, ATPlite)", "details": "Homo sapiens, Head/Neck, BME media, 72 hours, read-out: Sensitivity to Example 1 (IC50)", "method": "as §3, §4"}, "[12]": {"tested_on": "Gist882", "assay": "Cell line sensitivity (viability, ATPlite)", "details": "Homo sapiens; Gist882, GIST; BME media, 72 hours; read-out: Sensitivity to Example 1 (IC50)", "method": "as §3, §4"}, "[13]": {"tested_on": "HCT116", "assay": "Cell line sensitivity (viability, ATPlite)", "details": "Homo sapiens, HCT-116; HCT116, Colon; BME media, 72 hours; read-out: Sensitivity to Example 1 (IC50)", "method": "as §3, §4"}, "[14]": {"tested_on": "HCT15", "assay": "Cell line sensitivity (viability, ATPlite)", "details": "Homo sapiens, HCT-15; HCT15, Colon; BME media, 72 hours; read-out: Sensitivity to Example 1 (IC50)", "method": "as §3, §4"}, "[15]": {"tested_on": "HT1080", "assay": "Cell line sensitivity (viability, ATPlite)", "details": "Homo sapiens, HT-1080; HT1080, Sarcoma; BME media, 72 hours; read-out: Sensitivity to Example 1 (IC50)", "method": "as §3, §4"}, "[16]": {"tested_on": "LNCaP", "assay": "Cell line sensitivity (viability, ATPlite)", "details": "Homo sapiens, Prostate, BME media, 72 hours, read-out: Sensitivity to Example 1 (IC50)", "method": "as §3, §4"}, "[17]": {"tested_on": "MDA-MB453", "assay": "Cell line sensitivity (viability, ATPlite)", "details": "Homo sapiens, MDA-MB-453; MDA-MB453, Breast; BME media, 72 hours; read-out: Sensitivity to Example 1 (IC50)", "method": "as §3, §4"}, "[18]": {"tested_on": "MDA-MB468", "assay": "Cell line sensitivity (viability, ATPlite)", "details": "Homo sapiens, MDA-MB-468; MDA-MB468, Breast; BME media, 72 hours; read-out: Sensitivity to Example 1 (IC50)", "method": "as §3, §4"}, "[19]": {"tested_on": "MiaPaCa2", "assay": "Cell line sensitivity (viability, ATPlite)", "details": "Homo sapiens, MIA PaCa-2; MiaPaCa2, Pancreatic; BME media, 72 hours; read-out: Sensitivity to Example 1 (IC50)", "method": "as §3, §4"}, "[20]": {"tested_on": "NCI-H647", "assay": "Cell line sensitivity (viability, ATPlite)", "details": "Homo sapiens; NCI-H647, Lung; BME media, 72 hours; read-out: Sensitivity to Example 1 (IC50)", "method": "as §3, §4"}, "[21]": {"tested_on": "OVCAR-3", "assay": "Cell line sensitivity (viability, ATPlite)", "details": "Homo sapiens; OVCAR-3, Ovarian; BME media, 72 hours; read-out: Sensitivity to Example 1 (IC50)", "method": "as §3, §4"}, "[22]": {"tested_on": "PL45", "assay": "Cell line sensitivity (viability, ATPlite)", "details": "PL45, Pancreatic; BME media, 72 hours; read-out: Sensitivity to Example 1 (IC50)", "method": "as §3, §4"}, "[23]": {"tested_on": "Panc-1", "assay": "Cell line sensitivity (viability, ATPlite)", "details": "Homo sapiens; Panc-1, Pancreatic; BME media, 72 hours; read-out: Sensitivity to Example 1 (IC50)", "method": "as §3, §4"}, "[24]": {"tested_on": "RKO", "assay": "Cell line sensitivity (viability, ATPlite)", "details": "Homo sapiens, Colon, BME media, 72 hours, read-out: Sensitivity to Example 1 (IC50)", "method": "as §3, §4"}, "[25]": {"tested_on": "SW48", "assay": "Cell line sensitivity (viability, ATPlite)", "details": "Homo sapiens; SW48, Colon; BME media, 72 hours; read-out: Sensitivity to Example 1 (IC50)", "method": "as §3, §4"}, "[26]": {"tested_on": "UMUC-3", "assay": "Cell line sensitivity (viability, ATPlite)", "details": "Homo sapiens, UMUC3; UMUC-3, Bladder; BME media, 72 hours; read-out: Sensitivity to Example 1 (IC50)", "method": "as §3, §4"}}, "note": "pEC50, pIC50: −log10 of the molar value.", "data": [{"smiles": "O=C(c1cc(C(F)(F)F)n[nH]1)N(Cc1ccc(O)cc1F)CC1CCC1", "note": "[Example 1, N-(cyclobutylmethyl)-N-(2-fluoro-4-hydroxybenzyl)-3-(trifluoromethyl)-1H-pyrazole-5-carboxamide]", "values": [{"measurement": "pEC50", "setting": "[1]", "value": 7.15}, {"measurement": "pEC50", "setting": "[2]", "value": 6.81}, {"measurement": "pIC50", "setting": "[3]", "value": "≤ 7.00"}, {"measurement": "pIC50", "setting": "[4]", "value": "< 4.52"}, {"measurement": "pIC50", "setting": "[5]", "value": "< 4.52"}, {"measurement": "pIC50", "setting": "[6]", "value": 7.10}, {"measurement": "pIC50", "setting": "[7]", "value": "< 4.52"}, {"measurement": "pIC50", "setting": "[8]", "value": "< 4.52"}, {"measurement": "pIC50", "setting": "[9]", "value": 5.52}, {"measurement": "pIC50", "setting": "[10]", "value": "< 4.52"}, {"measurement": "pIC50", "setting": "[11]", "value": "< 4.52"}, {"measurement": "pIC50", "setting": "[12]", "value": 6.10}, {"measurement": "pIC50", "setting": "[13]", "value": 7.00}, {"measurement": "pIC50", "setting": "[14]", "value": "< 4.52"}, {"measurement": "pIC50", "setting": "[15]", "value": 7.30}, {"measurement": "pIC50", "setting": "[16]", "value": "< 4.52"}, {"measurement": "pIC50", "setting": "[17]", "value": "< 4.52"}, {"measurement": "pIC50", "setting": "[18]", "value": "< 4.52"}, {"measurement": "pIC50", "setting": "[19]", "value": 6.70}, {"measurement": "pIC50", "setting": "[20]", "value": "< 4.52"}, {"measurement": "pIC50", "setting": "[21]", "value": 7.70}, {"measurement": "pIC50", "setting": "[22]", "value": "< 4.52"}, {"measurement": "pIC50", "setting": "[23]", "value": 7.85}, {"measurement": "pIC50", "setting": "[24]", "value": "< 4.52"}, {"measurement": "pIC50", "setting": "[25]", "value": "< 4.52"}, {"measurement": "pIC50", "setting": "[26]", "value": "< 4.52"}]}]}
